Laboratory results as given in US11109593B2, “Isoxazolin-5-one derivative and herbicide containing same as active ingredient” (HOKKO CHEMICAL INDUSTRY CO., LTD., priority 2017, dated 2021).

Tested on: Echinochloa crus-galli
Assay: Test Example 1: herbicidal effect test by treatment of rice paddy soil (immediately after seeding)
Format: in vivo
Details: 120 g/10a active ingredient, dry weight vs untreated area, 14 days after treatment
Procedure, shortened: (§1)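 Paddy soil in pots with compound fertilizer, puddled; 30 seeds per species sown at 0–1 cm, flooded ~3 cm, greenhouse. Water-diluted emulsions dropped onto water immediately after seeding at 120 g active ingredient per 10 ares, duplicate. Herbicidal rate (%) from plant dry weight versus untreated, 14 days after treatment.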

Row | SMILES | Herbicidal rate (%) Echinochloa crus-galli
1 | CCN(CC)C(=O)N(c1ccccc1Cc1c(C)n(C(C)c2ccccc2)oc1=O)S(=O)(=O)C(F)(F)F (centres unmarked) [Compound 1-886] | 90%
2 | Cc1c(Cc2ccc(Cl)cc2NS(=O)(=O)C(F)(F)F)c(=O)on1C(C)C [Compound 1-37] | 60%

Tested on: Scirpus juncoides
Assay: as above
Format: in vivo
Details: 120 g/10a active ingredient, dry weight vs untreated area, 14 days after treatment
Procedure, shortened: as §1

Row | SMILES | Herbicidal rate (%) Scirpus juncoides
3 | CCN(CC)C(=O)N(c1ccccc1Cc1c(C)n(C(C)c2ccccc2)oc1=O)S(=O)(=O)C(F)(F)F (centres unmarked) [Compound 1-886] | 90%
4 | Cc1c(Cc2ccc(Cl)cc2NS(=O)(=O)C(F)(F)F)c(=O)on1C(C)C [Compound 1-37] | 90%

Tested on: broad leaf weeds (Lindernia pyxidaria and Monochoria vaginalis)
Assay: as above
Format: in vivo
Details: Lindernia pyxidaria, 120 g/10a active ingredient, dry weight vs untreated area, 14 days after treatment
Procedure, shortened: as §1

Row | SMILES | Herbicidal rate (%) Lindernia pyxidaria
5 | CCN(CC)C(=O)N(c1ccccc1Cc1c(C)n(C(C)c2ccccc2)oc1=O)S(=O)(=O)C(F)(F)F (centres unmarked) [Compound 1-886] | 90%
6 | Cc1c(Cc2ccc(Cl)cc2NS(=O)(=O)C(F)(F)F)c(=O)on1C(C)C [Compound 1-37] | 80%

Same assay, conditions: Monochoria vaginalis, 120 g/10a active ingredient, dry weight vs untreated area, 14 days after treatment

Row | SMILES | Herbicidal rate (%) Monochoria vaginalis
7 | CCN(CC)C(=O)N(c1ccccc1Cc1c(C)n(C(C)c2ccccc2)oc1=O)S(=O)(=O)C(F)(F)F (centres unmarked) [Compound 1-886] | 90%
8 | Cc1c(Cc2ccc(Cl)cc2NS(=O)(=O)C(F)(F)F)c(=O)on1C(C)C [Compound 1-37] | 40%

Tested on: Echinochloa crus-galli
Assay: Test Example 4: herbicidal effect test by treatment of leave and stem in dry field farming (seven days after seeding)
Format: in vivo
Details: 120 g/10a active ingredient; emulsion sprayed seven days after seeding; evaluated 14 days after treatment
Procedure, shortened: (§2)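 Weeds were seeded at 20 seeds per species into the top 1 cm of alluvial upland soil in pots, then sprayed 7 days after seeding with water-diluted emulsifiable concentrate at 100 L/10 a, giving 120 g active ingredient/10 a. Duplicate pots; herbicidal rate (%) was 14 days post-treatment, from dry weight versus untreated.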

Row | SMILES | herbicidal effect (herbicidal rate), Echinochloa crus-galli
9 | CCN(CC)C(=O)N(c1ccccc1Cc1c(C)n(C(C)c2ccccc2)oc1=O)S(=O)(=O)C(F)(F)F (centres unmarked) [Compound 1-886] | 90%
10 | Cc1c(Cc2ccc(Cl)cc2NS(=O)(=O)C(F)(F)F)c(=O)on1C(C)C [Compound 1-37] | 90%

Tested on: Amaranthus viridis
Assay: as above
Format: in vivo
Details: 120 g/10a active ingredient; emulsion sprayed seven days after seeding; evaluated 14 days after treatment
Procedure, shortened: as §2

Row | SMILES | herbicidal effect (herbicidal rate), Amaranthus viridis
11 | CCN(CC)C(=O)N(c1ccccc1Cc1c(C)n(C(C)c2ccccc2)oc1=O)S(=O)(=O)C(F)(F)F (centres unmarked) [Compound 1-886] | 40%
12 | Cc1c(Cc2ccc(Cl)cc2NS(=O)(=O)C(F)(F)F)c(=O)on1C(C)C [Compound 1-37] | 40%

Tested on: Chenopodium album
Assay: as above
Format: in vivo
Details: 120 g/10a active ingredient; emulsion sprayed seven days after seeding; evaluated 14 days after treatment
Procedure, shortened: as §2

Row | SMILES | herbicidal effect (herbicidal rate), Chenopodium album
13 | CCN(CC)C(=O)N(c1ccccc1Cc1c(C)n(C(C)c2ccccc2)oc1=O)S(=O)(=O)C(F)(F)F (centres unmarked) [Compound 1-886] | 40%
14 | Cc1c(Cc2ccc(Cl)cc2NS(=O)(=O)C(F)(F)F)c(=O)on1C(C)C [Compound 1-37] | 80%

Tested on: southern crabgrass
Assay: as above
Format: in vivo
Details: 120 g/10a active ingredient; emulsion sprayed seven days after seeding; evaluated 14 days after treatment
Procedure, shortened: as §2

Row | SMILES | herbicidal effect (herbicidal rate), southern crabgrass
15 | CCN(CC)C(=O)N(c1ccccc1Cc1c(C)n(C(C)c2ccccc2)oc1=O)S(=O)(=O)C(F)(F)F (centres unmarked) [Compound 1-886] | 90%
16 | Cc1c(Cc2ccc(Cl)cc2NS(=O)(=O)C(F)(F)F)c(=O)on1C(C)C [Compound 1-37] | 40%

Tested on: Echinochloa crus-galli
Assay: Test Example 3: herbicidal effect test by treatment of dry field farming soil (one day after seeding)
Format: in vivo
Details: 120 g/10a active ingredient, evaluated 14 days after treatment
Procedure, shortened: (§3)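 Herbicidal rate (%) = {1 − treated/untreated mean plant dry weight} × 100, scored 14 days after spraying, duplicate pots per concentration. Emulsified compound was water-diluted and applied to soil surface one day post-seeding at 120 g a.i. per 10 ares.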

Row | SMILES | herbicidal rate, Echinochloa crus-galli
17 | CCN(CC)C(=O)N(c1ccccc1Cc1c(C)n(C(C)c2ccccc2)oc1=O)S(=O)(=O)C(F)(F)F (centres unmarked) [Compound 1-886] | 90%
18 | Cc1c(Cc2ccc(Cl)cc2NS(=O)(=O)C(F)(F)F)c(=O)on1C(C)C [Compound 1-37] | 70%

Tested on: Amaranthus viridis
Assay: as above
Format: in vivo
Details: 120 g/10a active ingredient, evaluated 14 days after treatment
Procedure, shortened: as §3

Row | SMILES | herbicidal rate, Amaranthus viridis
19 | CCN(CC)C(=O)N(c1ccccc1Cc1c(C)n(C(C)c2ccccc2)oc1=O)S(=O)(=O)C(F)(F)F (centres unmarked) [Compound 1-886] | 90%
20 | Cc1c(Cc2ccc(Cl)cc2NS(=O)(=O)C(F)(F)F)c(=O)on1C(C)C [Compound 1-37] | 0%

Tested on: Chenopodium album
Assay: as above
Format: in vivo
Details: 120 g/10a active ingredient, evaluated 14 days after treatment
Procedure, shortened: as §3

Row | SMILES | herbicidal rate, Chenopodium album
21 | CCN(CC)C(=O)N(c1ccccc1Cc1c(C)n(C(C)c2ccccc2)oc1=O)S(=O)(=O)C(F)(F)F (centres unmarked) [Compound 1-886] | 90%
22 | Cc1c(Cc2ccc(Cl)cc2NS(=O)(=O)C(F)(F)F)c(=O)on1C(C)C [Compound 1-37] | 40%

Tested on: southern crabgrass
Assay: as above
Format: in vivo
Details: 120 g/10a active ingredient, evaluated 14 days after treatment
Procedure, shortened: as §3

Row | SMILES | herbicidal rate, southern crabgrass
23 | CCN(CC)C(=O)N(c1ccccc1Cc1c(C)n(C(C)c2ccccc2)oc1=O)S(=O)(=O)C(F)(F)F (centres unmarked) [Compound 1-886] | 90%
24 | Cc1c(Cc2ccc(Cl)cc2NS(=O)(=O)C(F)(F)F)c(=O)on1C(C)C [Compound 1-37] | 40%

Tested on: Echinochloa crus-galli
Assay: Test Example 2: herbicidal effect test by treatment during growing period in paddy rice cultivation (seven days after seeding)
Format: in vivo
Details: 120 g/10a active ingredient, assessed 14 days after treatment, dry weight vs untreated area
Procedure, shortened: (§4)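 Emulsion formulations, diluted in water, applied dropwise to flooded pots (about 3 cm water) 7 days post-seeding at 120 g a.i./10 ares. Weeds sown 30 seeds each, 0–1 cm deep in puddled paddy soil; greenhouse. Readout: % reduction in plant dry weight vs untreated, day 14, duplicates.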

Row | SMILES | Herbicidal rate (%) Echinochloa crus-galli
25 | CCN(CC)C(=O)N(c1ccccc1Cc1c(C)n(C(C)c2ccccc2)oc1=O)S(=O)(=O)C(F)(F)F (centres unmarked) [Compound 1-886] | 90%
26 | Cc1c(Cc2ccc(Cl)cc2NS(=O)(=O)C(F)(F)F)c(=O)on1C(C)C [Compound 1-37] | 40%

Tested on: Scirpus juncoides
Assay: as above
Format: in vivo
Details: 120 g/10a active ingredient, assessed 14 days after treatment, dry weight vs untreated area
Procedure, shortened: as §4

Row | SMILES | Herbicidal rate (%) Scirpus juncoides
27 | CCN(CC)C(=O)N(c1ccccc1Cc1c(C)n(C(C)c2ccccc2)oc1=O)S(=O)(=O)C(F)(F)F (centres unmarked) [Compound 1-886] | 90%
28 | Cc1c(Cc2ccc(Cl)cc2NS(=O)(=O)C(F)(F)F)c(=O)on1C(C)C [Compound 1-37] | 0%

Tested on: broad leaf weeds (Lindernia pyxidaria and Monochoria vaginalis)
Assay: as above
Format: in vivo
Details: Lindernia pyxidaria, 120 g/10a active ingredient, assessed 14 days after treatment, dry weight vs untreated area
Procedure, shortened: as §4

Row | SMILES | Herbicidal rate (%) Lindernia pyxidaria
29 | CCN(CC)C(=O)N(c1ccccc1Cc1c(C)n(C(C)c2ccccc2)oc1=O)S(=O)(=O)C(F)(F)F (centres unmarked) [Compound 1-886] | 90%
30 | Cc1c(Cc2ccc(Cl)cc2NS(=O)(=O)C(F)(F)F)c(=O)on1C(C)C [Compound 1-37] | 40%

Same assay, conditions: Monochoria vaginalis, 120 g/10a active ingredient, assessed 14 days after treatment, dry weight vs untreated area

Row | SMILES | Herbicidal rate (%) Monochoria vaginalis
31 | CCN(CC)C(=O)N(c1ccccc1Cc1c(C)n(C(C)c2ccccc2)oc1=O)S(=O)(=O)C(F)(F)F (centres unmarked) [Compound 1-886] | 90%
32 | Cc1c(Cc2ccc(Cl)cc2NS(=O)(=O)C(F)(F)F)c(=O)on1C(C)C [Compound 1-37] | 40%
